Experimental data from publication PMC10156769, “The novel anti-cancer fluoropyrimidine NUC-3373 is a potent inhibitor of thymidylate synthase and an effective DNA-damaging agent” (Cancer Chemotherapy and Pharmacology, 2023).

Assays:
[1] = biological target: T1, dUTPase (Deoxyuridine triphosphate nucleotidohydrolase) (Homo sapiens, UniProt P33316); experiment: EnzChek pyrophosphate coupled assay, recombinant human dUTPase, product inhibition; type: biochemical
T1 construct: gene DUT
T1 sequence (P33316 70-252): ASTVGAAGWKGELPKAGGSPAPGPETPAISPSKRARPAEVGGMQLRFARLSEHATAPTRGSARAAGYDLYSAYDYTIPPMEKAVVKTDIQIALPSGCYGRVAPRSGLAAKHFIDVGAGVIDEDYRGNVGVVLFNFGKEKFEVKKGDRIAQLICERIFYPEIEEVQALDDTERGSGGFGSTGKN

[2] = biological target: T2, thymidylate synthase (TS) (Homo sapiens, UniProt P04818); experiment: western blot shift of TS ([…] to […] kDa, ternary complex) in HCT116 and SW480 cells treated with NUC-3373 or 5-FU; type: cell-based
T2 construct: gene TYMS
T2 sequence (P04818 2-313): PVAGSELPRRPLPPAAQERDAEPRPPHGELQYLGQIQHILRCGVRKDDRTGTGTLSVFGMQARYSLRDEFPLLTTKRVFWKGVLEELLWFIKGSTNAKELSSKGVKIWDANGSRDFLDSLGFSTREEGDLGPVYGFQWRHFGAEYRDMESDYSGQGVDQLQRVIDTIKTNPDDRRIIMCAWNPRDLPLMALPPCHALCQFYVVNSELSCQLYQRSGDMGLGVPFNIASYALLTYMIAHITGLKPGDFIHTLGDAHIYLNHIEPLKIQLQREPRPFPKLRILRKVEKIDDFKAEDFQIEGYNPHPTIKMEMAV

Q: Which results are given for `O=c1[nH]c(=O)n([C@H]2C[C@H](O)[C@@H](COP(=O)(O)O)O2)cc1F` [FdUMP]?
A: Ki [1]: 0.62 ± 0.05 µM; western blot shift of TS (36 to 38 kDa, ternary complex) in HCT116 and SW480 cel [2]: The binding of FdUMP to TS, causing inhibition of the enzyme, is determined by the presence of an upper band

Q: With `O=c1ccn([C@H]2C[C@H](O)[C@@H](COP(=O)(O)O)O2)c(=O)[nH]1` [dUMP] as the molecule, how does the Ki [1] read?
A: 5.8 ± 1.4 µM
